Measured values published in patent US20140308733A1, “METHOD FOR INDUCING GERMINATION OF SPORE FORMING BACTERIUM” (CALPIS CO., LTD., priority 2011, published 2014).

Experiments:
Test in all cases: Germination induction, change of turbidity (630 nm) of spore suspension
Assay type in all cases: cell-based
Details in all cases: 300 ppm, 37° C., 150 rpm
[1] = system: Bacillus licheniformis (NBRC 14206)
Description: (§1) It is possible to determine whether spores have germinated, after measuring an OD 630 value (turbidity at 630 nm) of the liquid culture, based on decrease in the value (Literature: Microbiology, (1950), 4, 3, 330-338). Briefly, bacterial cells after culturing are washed with distilled water and diluted with distilled water to OD 630=1.0, which is then mixed with an equal volume of a germination induction solution, and the turbidity at 630 nm is measured by a UV spectrophotometer at room temperature.
(§2) TS culture media (Difco, Trypticase Soy Broth) were inoculated respectively with 11 strains listed in Table 1 and cultured at 50° C. with respect to Geobacillus stearothermophilus NBRC13737 and Aeribacillus pallidus TK6004 (FERM BP-08597), and at 37° C. with respect to the other 9 strains, until respective colonies were established. Then with respect to each of 11 strains, a loop full of a single colony was scratched by a platinum loop and suspended in 500 μL of sterilized water. In 1000 g of water was dissolved 8.0 g of a nutrient agar culture medium (Difco, Nutrient Broth), followed by high pressure steam sterilization (121° C., 15 min) to prepare a plate medium. The nutrient agar culture medium was smeared with each 100 μL of the suspension and cultured at 37° C. for 3 days.
(§3) Then, bacterial cells were suspended using a platinum loop in 500 μL of sterilized water, and the bacterial suspension was subjected to a heat shock at 65° C. for 35 min. Each 100 μL of the heat-shocked bacterial suspension and a not-heat-shocked bacterial suspension were smeared on the TS culture media respectively and cultured at 50° C. or 37° C. for 1 day.
(§4) After confirming the spore formation, the bacterial cells were collected by a bacteria spreader, suspended in 10 mL of sterilized distilled water, and then centrifuged (8340×g, 4° C., 15 min). The supernatant was removed and thereafter the bacterial cells were washed twice with 10 mL of sterilized water. After washing, the bacterial cells were suspended in 5 mL of sterilized water, and the suspension was filtrated by sterilized Kimwipes. The filtrate was centrifuged (8340×g, 4° C., 15 min) to remove the supernatant, and the rest was adjusted to the turbidity (at 630 nm) of 1.0 with sterilized water.
(§5) After dissolving with stirring using a stirring rod with a propeller, filtration sterilization (0.45 μm filter) was conducted to prepare each 600 ppm-solution.
(§6) Five hundred (500) μL of each solution and 500 μL of each bacterial spore suspension were mixed. […] Defining the time point of mixing as the reaction initiation (0 min), and continuing shaking (150 rpm) at 37° C., the turbidity (630 nm) was measured at 10, 20, 30, 40, 50, 60, 90, 120, and 180 min after the reaction initiation.
(§7) Since the turbidity at 630 nm decreases by germination of spores, it has been known that the turbidity at 630 nm can be used to determine the germination rate.

[2] = system: Bacillus amyloliquefaciens (NBRC 3022)
Description: as §1, §2
as §3, with “day. As the results of the cultures, colony formation was confirmed also with respect to the heat-shocked bacterial suspensions, to confirm that spores were formed for all of 11 strains. Further, since the bacteria were not stained by Gram staining, it was reconfirmed that spores were formed.” for “day.”
as §4, §5, §6, §7

[3] = system: Aeribacillus pallidus TK6004 (FERM BP-08597)
Description: as §1, §2
as §3, with “day. As the results of the cultures, colony formation was confirmed also with respect to the heat-shocked bacterial suspensions, to confirm that spores were formed for all of 11 strains. Further, since the bacteria were not stained by Gram staining, it was reconfirmed that spores were formed.” for “day.”
as §4, §5, §6, §7

[4] = system: Bacillus coagulans (NBRC 3887)
Description: as §1, §2
as §3, with “day. As the results of the cultures, colony formation was confirmed also with respect to the heat-shocked bacterial suspensions, to confirm that spores were formed for all of 11 strains. Further, since the bacteria were not stained by Gram staining, it was reconfirmed that spores were formed.” for “day.”
as §4, §5, §6, §7

[5] = system: Bacillus coagulans (NBRC 12583)
Description: as §1, §2
as §3, with “day. As the results of the cultures, colony formation was confirmed also with respect to the heat-shocked bacterial suspensions, to confirm that spores were formed for all of 11 strains. Further, since the bacteria were not stained by Gram staining, it was reconfirmed that spores were formed.” for “day.”
as §4, §5, §6, §7

[6] = system: Geobacillus stearothermophilus (NBRC 13737)
Description: as §1, §2
as §3, with “day. As the results of the cultures, colony formation was confirmed also with respect to the heat-shocked bacterial suspensions, to confirm that spores were formed for all of 11 strains. Further, since the bacteria were not stained by Gram staining, it was reconfirmed that spores were formed.” for “day.”
as §4, §5, §6, §7

[7] = system: Bacillus amyloliquefaciens (NBRC 3032)
Description: as §1, §2
as §3, with “day. As the results of the cultures, colony formation was confirmed also with respect to the heat-shocked bacterial suspensions, to confirm that spores were formed for all of 11 strains. Further, since the bacteria were not stained by Gram staining, it was reconfirmed that spores were formed.” for “day.”
as §4, §5, §6, §7

[8] = system: Bacillus subtilis C-3102 (FERM BP-1096)
Description: as §1, §2
as §3, with “day. As the results of the cultures, colony formation was confirmed also with respect to the heat-shocked bacterial suspensions, to confirm that spores were formed for all of 11 strains. Further, since the bacteria were not stained by Gram staining, it was reconfirmed that spores were formed.” for “day.”
as §4, §5, §6, §7

[9] = system: Bacillus subtilis sp spizizenii (NBRC 101239)
Description: as §1, §2
as §3, with “day. As the results of the cultures, colony formation was confirmed also with respect to the heat-shocked bacterial suspensions, to confirm that spores were formed for all of 11 strains. Further, since the bacteria were not stained by Gram staining, it was reconfirmed that spores were formed.” for “day.”
as §4, §5, §6, §7

[10] = system: Bacillus licheniformis (NBRC 12195)
Description: as §1, §2
as §3, with “day. As the results of the cultures, colony formation was confirmed also with respect to the heat-shocked bacterial suspensions, to confirm that spores were formed for all of 11 strains. Further, since the bacteria were not stained by Gram staining, it was reconfirmed that spores were formed.” for “day.”
as §4, §5, §6, §7

[11] = 20 min after reaction initiation
[12] = 30 min after reaction initiation
[13] = 40 min after reaction initiation
[14] = 50 min after reaction initiation
[15] = 60 min after reaction initiation
[16] = 90 min after reaction initiation
[17] = 120 min after reaction initiation
[18] = 180 min after reaction initiation
[19] = 0 min after reaction initiation
[20] = 10 min after reaction initiation

With `C[C@H](N)C(=O)O` [L-Ala, L-alanine, reference compound] the “turbidity (630 nm)” value [1, 11] was 0.535, the “turbidity (630 nm)” value [1, 12] was 0.502 and the “turbidity (630 nm)” value [1, 13] was 0.490. For the same molecule, the “turbidity (630 nm)” value [1, 14] was 0.482, the “turbidity (630 nm)” value [1, 15] was 0.477 and the “turbidity (630 nm)” value [1, 16] was 0.470. For the same molecule, the “turbidity (630 nm)” value [1, 17] was 0.465, the “turbidity (630 nm)” value [1, 18] was 0.468 and the “turbidity (630 nm)” value [2, 19] was 0.565. The “turbidity (630 nm)” value [2, 20] was 0.505, the “turbidity (630 nm)” value [2, 11] was 0.506 and the “turbidity (630 nm)” value [2, 12] was 0.461. The “turbidity (630 nm)” value [2, 13] was 0.495, the “turbidity (630 nm)” value [2, 14] was 0.504 and the “turbidity (630 nm)” value [2, 15] was 0.506. For the same molecule, the “turbidity (630 nm)” value [2, 16] was 0.490, the “turbidity (630 nm)” value [2, 17] was 0.505 and the “turbidity (630 nm)” value [2, 18] was 0.493. The “turbidity (630 nm)” value [3, 19] was 0.488, the “turbidity (630 nm)” value [3, 20] was 0.470 and the “turbidity (630 nm)” value [3, 11] was 0.463. For the same molecule, the “turbidity (630 nm)” value [3, 12] was 0.457, the “turbidity (630 nm)” value [3, 13] was 0.451 and the “turbidity (630 nm)” value [3, 14] was 0.445. For the same molecule, the “turbidity (630 nm)” value [3, 15] was 0.441, the “turbidity (630 nm)” value [3, 16] was 0.416 and the “turbidity (630 nm)” value [3, 17] was 0.404. For the same molecule, the “turbidity (630 nm)” value [3, 18] was 0.370, the “turbidity (630 nm)” value [4, 19] was 0.510 and the “turbidity (630 nm)” value [4, 20] was 0.508. For the same molecule, the “turbidity (630 nm)” value [4, 11] was 0.470, the “turbidity (630 nm)” value [4, 12] was 0.515 and the “turbidity (630 nm)” value [4, 13] was 0.488. The “turbidity (630 nm)” value [4, 14] was 0.500, the “turbidity (630 nm)” value [4, 15] was 0.500 and the “turbidity (630 nm)” value [4, 16] was 0.472. The “turbidity (630 nm)” value [4, 17] was 0.500, the “turbidity (630 nm)” value [4, 18] was 0.490 and the “turbidity (630 nm)” value [5, 19] was 0.564. For the same molecule, the “turbidity (630 nm)” value [5, 20] was 0.559, the “turbidity (630 nm)” value [5, 11] was 0.545 and the “turbidity (630 nm)” value [5, 12] was 0.515. For the same molecule, the “turbidity (630 nm)” value [5, 13] was 0.502, the “turbidity (630 nm)” value [5, 14] was 0.498 and the “turbidity (630 nm)” value [5, 15] was 0.510. For the same molecule, the “turbidity (630 nm)” value [5, 16] was 0.510, the “turbidity (630 nm)” value [5, 17] was 0.507 and the “turbidity (630 nm)” value [5, 18] was 0.491. For the same molecule, the “turbidity (630 nm)” value [6, 19] was 0.577, the “turbidity (630 nm)” value [6, 20] was 0.573 and the “turbidity (630 nm)” value [6, 11] was 0.566. The “turbidity (630 nm)” value [6, 12] was 0.565, the “turbidity (630 nm)” value [6, 13] was 0.568 and the “turbidity (630 nm)” value [6, 14] was 0.561. For the same molecule, the “turbidity (630 nm)” value [6, 15] was 0.568, the “turbidity (630 nm)” value [6, 16] was 0.565 and the “turbidity (630 nm)” value [6, 17] was 0.553. For the same molecule, the “turbidity (630 nm)” value [6, 18] was 0.538, the “turbidity (630 nm)” value [7, 19] was 0.517 and the “turbidity (630 nm)” value [7, 20] was 0.418. For the same molecule, the “turbidity (630 nm)” value [7, 11] was 0.362, the “turbidity (630 nm)” value [7, 12] was 0.347 and the “turbidity (630 nm)” value [7, 13] was 0.333. For the same molecule, the “turbidity (630 nm)” value [7, 14] was 0.315, the “turbidity (630 nm)” value [7, 15] was 0.32 and the “turbidity (630 nm)” value [7, 16] was 0.298. For the same molecule, the “turbidity (630 nm)” value [7, 17] was 0.290, the “turbidity (630 nm)” value [7, 18] was 0.274 and the “turbidity (630 nm)” value [8, 19] was 0.606. The “turbidity (630 nm)” value [8, 20] was 0.607, the “turbidity (630 nm)” value [8, 11] was 0.597 and the “turbidity (630 nm)” value [8, 12] was 0.597. The “turbidity (630 nm)” value [8, 13] was 0.594, the “turbidity (630 nm)” value [8, 14] was 0.590 and the “turbidity (630 nm)” value [8, 15] was 0.582. The “turbidity (630 nm)” value [8, 16] was 0.584, the “turbidity (630 nm)” value [8, 17] was 0.574 and the “turbidity (630 nm)” value [8, 18] was 0.578. For the same molecule, the “turbidity (630 nm)” value [9, 19] was 0.527, the “turbidity (630 nm)” value [9, 20] was 0.520 and the “turbidity (630 nm)” value [9, 11] was 0.514. The “turbidity (630 nm)” value [9, 12] was 0.501, the “turbidity (630 nm)” value [9, 13] was 0.488 and the “turbidity (630 nm)” value [9, 14] was 0.475. For the same molecule, the “turbidity (630 nm)” value [9, 15] was 0.455, the “turbidity (630 nm)” value [9, 16] was 0.409 and the “turbidity (630 nm)” value [9, 17] was 0.387. The “turbidity (630 nm)” value [9, 18] was 0.366, the “turbidity (630 nm)” value [10, 19] was 0.534 and the “turbidity (630 nm)” value [10, 20] was 0.526. For the same molecule, the “turbidity (630 nm)” value [10, 11] was 0.517, the “turbidity (630 nm)” value [10, 12] was 0.510 and the “turbidity (630 nm)” value [10, 13] was 0.508. The “turbidity (630 nm)” value [10, 14] was 0.503, the “turbidity (630 nm)” value [10, 15] was 0.503 and the “turbidity (630 nm)” value [10, 16] was 0.493. For the same molecule, the “turbidity (630 nm)” value [10, 17] was 0.492 and the “turbidity (630 nm)” value [10, 18] was 0.498.
